Read-outs that look alike come from different tables or passages of the source. Where a SMILES comes first, the peptide text is derived from it. Bridges are numbered along the chain shown (N, C = ends). [ ]: non-standard residue; d: D form. The star is where a group is joined. hPhe(3-Cl-4-CF3) = N[C@@H](CCc1ccc(C(F)(F)F)c(Cl)c1)C(=O)O; NPrPhe(4-CF3) = CCCN[C@@H](Cc1ccc(C(F)(F)F)cc1)C(=O)O; NMeGly(cPent) = CN[C@H](C(=O)O)C1CCCC1; Pro(4,4-F2) = O=C(O)[C@@H]1CC(F)(F)CN1; Pro(4,4-Me2) = CC1(C)CN[C@H](C(=O)O)C1; NMeF = CN[C@@H](Cc1ccccc1)C(=O)O; NMeD = CN[C@@H](CC(=O)O)C(=O)O; NMeL = CN[C@@H](CC(C)C)C(=O)O; Ac6c = NC1(C(=O)O)CCCCC1; Morpholide = C1CN(*)CCO1; NMeA = CN[C@@H](C)C(=O)O; Ac5c = NC1(C(=O)O)CCCC1; Aze = O=C(O)[C@@H]1CCN1; NEtG = CCNCC(=O)O; Sar = CNCC(=O)O
Legend:
[1] = target: GDP-bound HRAS wild-type protein (Homo sapiens, UniProt P01112); experiment: Binding to HRAS by surface plasmon resonance (SPR), Single Cycle Kinetics; details: SPR, GDP-bound HRAS wild-type protein vs GDP-bound KRAS wild-type protein
[2] = target: GDP-bound NRAS wild-type protein (Homo sapiens, UniProt P01111); experiment: Binding to NRAS by surface plasmon resonance (SPR), Single Cycle Kinetics; details: SPR, GDP-bound NRAS wild-type protein vs GDP-bound KRAS wild-type protein
[3] = target: GDP-bound KRAS wild-type protein (Homo sapiens, UniProt P01116); experiment: Binding to KRAS by surface plasmon resonance (SPR), Single Cycle Kinetics; details: GDP-bound KRAS wild-type protein, read-out: KRAS KD
[4] = SPR Single Cycle Kinetics, 1:1 binding model
[5] = SPR, Single Cycle Kinetics, 1:1 binding model

GDP-bound KRAS wild-type protein, sequence (P01116 whole entry): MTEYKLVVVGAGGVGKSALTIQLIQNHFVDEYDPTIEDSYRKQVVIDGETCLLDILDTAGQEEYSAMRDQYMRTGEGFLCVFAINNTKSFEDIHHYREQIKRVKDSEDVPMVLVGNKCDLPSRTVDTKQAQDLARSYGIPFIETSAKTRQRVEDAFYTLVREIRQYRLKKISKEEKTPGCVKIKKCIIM
GDP-bound HRAS wild-type protein, sequence (P01112 whole entry): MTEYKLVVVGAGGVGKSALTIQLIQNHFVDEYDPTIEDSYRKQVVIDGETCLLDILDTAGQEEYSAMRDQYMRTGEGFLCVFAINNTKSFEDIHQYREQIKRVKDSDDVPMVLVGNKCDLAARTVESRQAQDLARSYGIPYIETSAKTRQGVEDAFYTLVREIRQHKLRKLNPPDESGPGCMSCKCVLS
GDP-bound NRAS wild-type protein, sequence (P01111 whole entry): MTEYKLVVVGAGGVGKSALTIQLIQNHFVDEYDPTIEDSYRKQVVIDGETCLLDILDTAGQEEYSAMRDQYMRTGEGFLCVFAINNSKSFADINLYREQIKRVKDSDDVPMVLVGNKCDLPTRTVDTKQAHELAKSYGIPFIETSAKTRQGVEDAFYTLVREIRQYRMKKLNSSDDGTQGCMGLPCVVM

SMILES	HRAS/KRAS (ratio of KD value for HRAS to KD value for KRAS) [1]	NRAS/KRAS (ratio of KD value for NRAS to KD value for KRAS) [2]	Kd [3, 4]	HRAS/KRAS (ratio of KD value with respect to HRAS to KD value with respect to KRAS) [1]	NRAS/KRAS (ratio of KD value with respect to NRAS to KD value with respect to KRAS) [2]	other results
CCO[C@@H]1C[C@H]2C(=O)NC3(CC(C)(C)C3)C(=O)N(C)[C@@H](C(CC)CC)C(=O)N(C)[C@H](C(=O)N3CCCC3)CC(=O)N(C)[C@@H](C)C(=O)N[C@@H]([C@@H](C)CC)C(=O)N(C)CC(=O)N(C)[C@H]3C/C=C\CCN(C3=O)[C@@H](Cc3ccc(C)cc3)C(=O)N(C)CC(=O)N[C@@H](CCc3ccc(Cl)c(Cl)c3)C(=O)N2C1 [PP2187]	A (a compound having 10 or more and less than 20 is denoted as A)	AA (a compound having 20 or more is denoted as AA)				Kd ([3]; SPR, Single Cycle Kinetics): 690 pM
CCO[C@@H]1C[C@H]2C(=O)NC3(CCC3)C(=O)N(C)[C@@H](C(CC)CC)C(=O)N(C)[C@H](C(=O)N3CCCC3)CC(=O)N(C)[C@H]3CCCC/C=C/c4ccc(cc4)C[C@@H](C(=O)N(C)CC(=O)N[C@@H](CCc4ccc(Cl)c(Cl)c4)C(=O)N2C1)N1CC/C=C\C[C@@H](C1=O)N(C)C(=O)CN(C)C(=O)[C@H]([C@@H](C)CC)NC3=O [PP3047, (1S,7S,11R,13S,19S,22S,26S,29S,35S,37Z,47E)-7-[2-(3,4-dichlorophenyl)ethyl]-11-ethoxy-19-(1-ethylpropyl)-3,18,21,25,31,34-hexamethyl-29-[(1S)-1-methylpropyl]-22-(pyrrolidine-1-carbonyl)spiro[3,6,9,15,18,21,25,28,31,34,41-undecazapentacyclo[24.15.11.2^43,46.1^35,41.0^9,13]pentapentaconta-37,43(54),44,46(53),47-pentaene-16,1′-cyclobutane]-2,5,8,14,17,20,24,27,30,33,55-undecone]	A (a compound having 10 or more and less than 20 is denoted as A)	AA (a compound having 20 or more is denoted as AA)				Kd ([3]; SPR, Single Cycle Kinetics): 180 pM
CC[C@H](C)[C@@H]1NC(=O)[C@H](CC(C)C)N(C)C(=O)C[C@@H](C(=O)N2CCOCC2)N(C)C(=O)[C@H](C2CCCC2)N(C)C(=O)C2(CCCC2)NC(=O)[C@@H]2CCCN2C(=O)[C@H](CCc2ccc(C(F)(F)F)c(Cl)c2)NC(=O)CN(C)C(=O)[C@H](Cc2ccccc2)N(C)C(=O)CN(C)C(=O)CN(C)C1=O [PP0039] ([NMeL]I[Sar][Sar][NMeF][Sar][hPhe(3-Cl-4-CF3)]P[Ac5c][NMeGly(cPent)][NMeD]-Morpholide; lactam N-11)	C (A compound having a KD ratio of 0.1 or more and less than 3 is denoted as C)	C (A compound having a KD ratio of 0.1 or more and less than 3 is denoted as C)	170 pM			
CCCN1C(=O)[C@@H]2CCN2C(=O)[C@H](C)N(C)C(=O)[C@H]([C@@H](C)CC)NC(=O)[C@H](CC(C)C)N(C)C(=O)C[C@@H](C(=O)N2CCOCC2)N(C)C(=O)[C@H](C2CCCC2)N(C)C(=O)C2(CCCCC2)NC(=O)[C@@H]2CCCN2C(=O)[C@H](CCc2ccc(C(F)(F)F)c(Cl)c2)NC(=O)CN(C)C(=O)[C@@H]1Cc1ccc(C(F)(F)F)cc1 [PP0226] ([NMeL]I[NMeA][Aze][NPrPhe(4-CF3)][Sar][hPhe(3-Cl-4-CF3)]P[Ac6c][NMeGly(cPent)][NMeD]-Morpholide; lactam N-11)	B (a compound having 3 or more and less than 10 is denoted as B)	C (A compound having a KD ratio of 0.1 or more and less than 3 is denoted as C)	470 pM			
CCCN1C(=O)CN(C)C(=O)CN(CC)C(=O)[C@H]([C@@H](C)CC)NC(=O)[C@H](CC(C)C)N(C)C(=O)C[C@@H](C(=O)N(C)C)N(C)C(=O)[C@H](C2CCCC2)N(C)C(=O)C2(CCCC2)NC(=O)[C@@H]2CC(F)(F)CN2C(=O)[C@H](CCc2ccc(C(F)(F)F)c(Cl)c2)NC(=O)CN(C)C(=O)[C@@H]1Cc1ccc(C(F)(F)F)cc1 [PP0425] ([NMeL]I[NEtG][Sar][NPrPhe(4-CF3)][Sar][hPhe(3-Cl-4-CF3)][Pro(4,4-F2)][Ac5c][NMeGly(cPent)][NMeD]-NMe2; lactam N-11)			99 pM	C (A compound having a KD ratio of 0.1 or more and less than 3 is denoted as C)	B (a compound having 3 or more and less than 10 is denoted as B)	
CCO[C@@H]1C[C@H]2C(=O)NC3(CCC3)C(=O)N(C)[C@@H](C3CCCC3)C(=O)N(C)[C@H](C(=O)N(C)CCOC)CC(=O)N(C)[C@@H](C)C(=O)N[C@@H]([C@@H](C)CC)C(=O)N(C)CC(=O)N(C)[C@H]3C/C=C\CCN(C3=O)[C@@H](Cc3ccc(C(F)(F)F)cc3)C(=O)N(C)CC(=O)N[C@@H](CCc3cc(F)c(C(F)(F)F)c(F)c3)C(=O)N2C1 [PP1319, (2S,8S,12R,14S,20S,23S,27S,30S,36S,38Z)-20-cyclopentyl-8-[2-[3,5-difluoro-4-(trifluoromethyl)phenyl]ethyl]-12-ethoxy-N-(2-methoxyethyl)-N,4,19,22,26,27,32,35-octamethyl-30-[(1S)-1-methylpropyl]-3,6,9,15,18,21,25,28,31,34,42-undecaoxo-2-[[4-(trifluoromethyl)phenyl]methyl]spiro[1,4,7,10,16,19,22,26,29,32,35-undecazatricyclo[34.5.1.0^10,14]dotetracont-38-ene-17,1′-cyclobutane]-23-carboxamide]						HRAS/KRAS (ratio of KD value for HRAS to KD value for KRAS) ([1]; KD ratio class): B (a compound having 3 or more and less than 10 is denoted as B); NRAS/KRAS (ratio of KD value for NRAS to KD value for KRAS) ([2]; KD ratio class): A (a compound having 10 or more and less than 20 is denoted as A); Kd [3, 5]: 69 pM
CCO[C@@H]1C[C@H]2C(=O)NC3(CCC3)C(=O)N(C)[C@@H](C3CCCC3)C(=O)N(C)[C@H](C(=O)N(C)CCOC)CC(=O)N(C)[C@@H](CC3CC3)C(=O)N[C@@H]([C@@H](C)CC)C(=O)N(C)CC(=O)N(C)[C@H]3C/C=C\CCN(C3=O)[C@@H](Cc3ccc(C(F)(F)F)cc3)C(=O)N(C)CC(=O)N[C@@H](CCc3ccc4sccc4c3)C(=O)N2C1 [PP1328]						HRAS/KRAS (ratio of KD value for HRAS to KD value for KRAS) ([1]; KD ratio class): A (a compound having 10 or more and less than 20 is denoted as A); NRAS/KRAS (ratio of KD value for NRAS to KD value for KRAS) ([2]; KD ratio class): A (a compound having 10 or more and less than 20 is denoted as A); Kd [3, 5]: 560 pM
CC[C@H](C)[C@@H]1NC(=O)[C@H](CC)N(C)C(=O)C[C@@H](C(=O)N(C)C)N(CC)C(=O)[C@H](C2CCCC2)N(C)C(=O)C2(CCC2)NC(=O)[C@@H]2CCCCN2C(=O)[C@H](CCc2cc(F)c(C(F)(F)F)c(F)c2)NC(=O)CN(C)C(=O)[C@H](Cc2ccc(C(F)(F)F)cc2)N2CCCC[C@@H](C2=O)N(C)C(=O)CN(C)C1=O [PP0661]			340 pM	B (a compound having 3 or more and less than 10 is denoted as B)	C (A compound having a KD ratio of 0.1 or more and less than 3 is denoted as C)	
CCO[C@@H]1C[C@H]2C(=O)N(C)C3(CC(C)(C)C3)C(=O)N(C)[C@@H](C3CCCC3)C(=O)N(C)[C@H](C(=O)N(C)C)CC(=O)N(C)[C@H]3CCC/C=C/c4ccc(cc4)C[C@@H](C(=O)N(C)CC(=O)N[C@@H](CCc4cc(F)c(C(F)(F)F)c(F)c4)C(=O)N2C1)N1CC/C=C\C[C@@H](C1=O)N(C)C(=O)CN(C)C(=O)[C@H]([C@@H](C)CC)NC3=O [PP3060]	B (a compound having 3 or more and less than 10 is denoted as B)	B (a compound having 3 or more and less than 10 is denoted as B)				Kd ([3]; SPR, Single Cycle Kinetics): 42 pM
CC[C@H](C)[C@@H]1NC(=O)[C@H](CC)N(C)C(=O)C[C@@H](C(=O)N(C)C)N(C)C(=O)[C@H](C2CCCC2)N(C)C(=O)C2(CCC2)NC(=O)[C@@H]2CCN2C(=O)[C@H](CCc2cc(F)c(C(F)(F)F)c(F)c2)NC(=O)CN(C)C(=O)[C@H](Cc2ccc(C(F)(F)F)cc2)N2CCCC[C@@H](C2=O)N(C)C(=O)CN(C)C1=O [PP0657]			76 pM	B (a compound having 3 or more and less than 10 is denoted as B)	B (a compound having 3 or more and less than 10 is denoted as B)	
CCCN1C(=O)[C@@H]2CCN2C(=O)[C@H](C)N(C)C(=O)[C@H]([C@@H](C)CC)NC(=O)[C@H](CC(C)C)N(C)C(=O)C[C@@H](C(=O)N2CCOCC2)N(C)C(=O)[C@H](C2CCCC2)N(C)C(=O)C2(CCCC2)NC(=O)[C@@H]2CC(C)(C)CN2C(=O)[C@H](CCc2ccc(C(F)(F)F)c(Cl)c2)NC(=O)CN(C)C(=O)[C@@H]1Cc1ccc(C(F)(F)F)cc1 [PP0454] ([NMeL]I[NMeA][Aze][NPrPhe(4-CF3)][Sar][hPhe(3-Cl-4-CF3)][Pro(4,4-Me2)][Ac5c][NMeGly(cPent)][NMeD]-Morpholide; lactam N-11)			73 pM	C (A compound having a KD ratio of 0.1 or more and less than 3 is denoted as C)	C (A compound having a KD ratio of 0.1 or more and less than 3 is denoted as C)	

Source: patent publication US20240158446A1, “CYCLIC COMPOUND HAVING SELECTIVE INHIBITORY ACTION ON KRAS OVER HRAS AND NRAS” (CHUGAI SEIYAKU KABUSHIKI KAISHA, priority 2021, published 2024)
